# Results published in patent US20110251143A1, “STABLE ELSAMITRUCIN SALT FORMULATIONS” (Spectrum Pharmaceuticals, Inc., priority 2007, published 2011).
# How the values were obtained:
# [1] = stability study of Elsamitrucin F2 RTU, impurities profile by HPLC;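 also: formulation kept in nitrogen-flushed sealed amber vials, sampled at time points, diluted to roughly 0.1 mg/mL and analysed by gradient HPLC on a C18 column, water/acetonitrile with trifluoroacetic acid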
# Protocol: Design of the Stability Study: 250 mL of Elsamitrucin Tosylate stock solution (10 mg/mL free base, 4.77% Mannitol, pH 4.0) was prepared. 80×5 mL amber serum vials were filled with 2.5 mL of the Elsamitrucin Tosylate stock solution, flushed with nitrogen and sealed with stoppers. These sealed vials, in both upright and inverted positions, were stored in the following temperature cabinets at 4, 25, 40 and 60° C., respectively. […] Samples were removed for pH measurement and high performance liquid chromatography (HPLC) analysis at the various time points. At 60° C., measurements were made at 0, 2, 7, 10, 14 days. At 40° C., measurements were made at 0, 7, 14, 28, 38, 64, 77, 84 days. At 25° C., measurements were made at 0, 7, 14, 28, 64, 84 days. At 4° C., measures were made at 0, 7, 14, 28, 64, 84 days.
# For the present stability study HPLC weight/weight assay of elsamitrucin was done in addition to the determination of related impurities. The reagents for the HPLC assay are as follows—HPLC grade acetonitrile and trifluoroacetic acid (Lot #44093418) were obtained from EMD Science. Water was purified with Millipore Milli-Q system. The apparatus was the chromatographic system which consisted of a Waters Alliance 2695 separation module equipped with a column heater, an autosampler and a Waters 2996 photodiode array detector. Data acquisition was controlled by Waters Empower Pro 2 software. As the column a Cadenza Cd-C18, 3 μm, 4.6×150 mm (Silverstone Sciences) was used. Detection was made at 267 nm. Mobile phase A contained water with 0.1% trifluoroacetic acid. 2 mL of trifluoroacetic acid was pipetted to 2000 mL of water. Mobile phase B contained acetonitrile with 0.08% trifluoroacetic acid. 1 mL of trifluoroacetic acid was pipetted to 1250 mL of acetonitrile. 1 L of water was mixed thoroughly with 1 L of acetonitrile.
# HPLC analysis was run with a gradient at flow rate equal to 1.0 mL/min. The oven temperature was set at 40° C. The autosampler temperature was at 25° C. The injection volume was 10 μL. Sample Diluent—Acetonitrile/water (50/50, v/v): 1 L of water was mixed thoroughly with 1 L of acetonitrile. Sample Blank—Acetonitrile/water (50/50, v/v): Sample Diluent was used as Sample Blank. Standard Solution—˜0.1 mg/mL of Elsamitrucin: 26.32 mg of Elsamitrucin Tosylate was accurately weighed and dissolved in a 200 mL of Sample Diluent in a 200 mL volumetric flask. Sample Solution Preparation (one vial per time point): 2 mL of Elsamitrucin RTU solution was pipetted to a 20 mL volumetric flask and diluted with 18 mL of Sample Diluent. 2 mL of the diluted solution was further diluted with 18 mL of Sample Diluent in a 20 mL volumetric flask to give the final analytical sample (with concentration at about 0.1 mg/mL). The retention time for Elsamitrucin was about 11.7 minutes.
# MCF7 = settings: ER+ MCF7 cell line; cited from earlier work
# ER+ tumors = settings: clinical specimens; cited from earlier work
# MCF7DX = MCF7DX subline; cited from earlier work
# [2] = system: HCT 116 human colon carcinoma; assay: MTT cell growth inhibition, HCT 116; assay type: cell-based; settings: Homo sapiens; HCT 116, MTT, 5-10 days
# Protocol: (§1) The following experiment confirms that the elsamitrucin salts made in accordance with the teachings of the present disclosure retain their in vitro anti-neoplastic activity when compared to elsamitrucin base. Elsamitrucin and elsamitrucin tosylate were tested in vitro using: B16F10 (murine […]), HCT 116 (human colon), HT29 (human colon) and SK-MES-1 (human non-small cell lung carcinoma). Cell growth inhibition was evaluated in 96-well micro-culture plates with a semi-automated MTT (3-(4,5-dimethylthiazol-2-yl)-2,5-diphenyltetrazolium bromide) assay. […]
# (§2) Cell culture plates seeded with test cells and various concentrations of elsamitrucin solutions were placed in a humidified incubator at 37° C., with CO2 and 95% air for 5-10 days. […] Absorbance was monitored at a wavelength of 595 nm, and at a reference wavelength of 650 nm, using a TECAN® GENios mocroplate reader. In all experiments, absorbance data was acquired for each agent at two overlapping concentration ranges. […]
# (§3) The results of each test were stored and imported into PRISM® 3.03 for graphical analysis and determination of IC50 values. All results were graphed as a percentage of controlled absorbance versus the drug concentration. […]
# ER− tumors = settings: clinical specimens; cited from earlier work
# [3] = system: HT29 human colon carcinoma; assay: MTT cell growth inhibition, HT29; assay type: cell-based; settings: Homo sapiens, HT-29, 5-10 days
# Protocol: as §1, §2, §3
# [4] = patients with refractory/relapsed non-Hodgkin's lymphoma; cited from earlier work
# [5] = system: SK-MES-1 human non-small cell lung carcinoma; assay: MTT cell growth inhibition, SK-MES-1; assay type: cell-based; settings: Homo sapiens; SK-MES-1, MTT, 5-10 days
# Protocol: as §1, §2, §3
# [6] = system: B16F10 murine melanoma cells; assay: MTT cell growth inhibition, B16F10; assay type: cell-based; settings: Mus musculus, B16-F10, 5-10 days
# Protocol: as §1, §2, §3
# MDA-MB-231 = settings: ER− MDA-MB-231 cell line; cited from earlier work
compound,measurement,setting,value
"CO[C@H]1[C@@H](O)[C@@H](C)OC(O[C@H]2[C@H](Oc3cccc4c(O)c5c(=O)oc6ccc(C)c7c(=O)oc(c34)c5c67)O[C@H](C)[C@H](O)[C@]2(C)O)[C@@H]1N (stereo partly drawn) [Elsamitrucin, benzo(h)(1)benzopyrano(5,4,3-cde)(1)ebnzopyran-5,12-dione,10((2-O-(2-amino-2,6-dideoxy-3-O-methyl-alpha-D-galactopyranosyl)-6-deoxy-3-C-methyl-beta-D-galactopyranosyl)oxy)-6-hydroxy-1-methyl]",Area Percent of HPLC peak,"[1]; 10 mg/mL ELSA RTU Formulation 2, inverted, 5° C., Day 7",97.89 Area Percent
same,Area Percent of HPLC peak,"[1]; 10 mg/mL ELSA RTU Formulation 2, inverted, 5° C., Day 14",97.70 Area Percent
same,Area Percent of HPLC peak,"[1]; 10 mg/mL ELSA RTU Formulation 2, inverted, 5° C., Day 28",98.41 Area Percent
same,Area Percent of HPLC peak,"[1]; 10 mg/mL ELSA RTU Formulation 2, inverted, 5° C., Day 64",97.54 Area Percent
same,Area Percent of HPLC peak,"[1]; 10 mg/mL ELSA RTU Formulation 2, inverted, 5° C., Day 84",98.15 Area Percent
same,Area Percent of HPLC peak,"[1]; 10 mg/mL ELSA RTU Formulation 2, inverted, 5° C., Initial",97.63 Area Percent
same,Area Percent of HPLC peak,"[1]; 10 mg/mL ELSA RTU Formulation 2, inverted, 25° C., Day 7",97.71 Area Percent
same,Area Percent of HPLC peak,"[1]; 10 mg/mL ELSA RTU Formulation 2, inverted, 25° C., Day 14",97.73 Area Percent
same,Area Percent of HPLC peak,"[1]; 10 mg/mL ELSA RTU Formulation 2, inverted, 25° C., Day 28",98.37 Area Percent
same,Area Percent of HPLC peak,"[1]; 10 mg/mL ELSA RTU Formulation 2, inverted, 25° C., Day 64",97.42 Area Percent
same,Area Percent of HPLC peak,"[1]; 10 mg/mL ELSA RTU Formulation 2, inverted, 25° C., Day 84",97.28 Area Percent
same,Area Percent of HPLC peak,"[1]; 10 mg/mL ELSA RTU Formulation 2, inverted, 25° C., Initial",97.63 Area Percent
same,Area Percent of HPLC peak,"[1]; 10 mg/mL ELSA RTU Formulation 2, inverted, 40° C., Day 7",97.75 Area Percent
same,Area Percent of HPLC peak,"[1]; 10 mg/mL ELSA RTU Formulation 2, inverted, 40° C., Day 14",97.64 Area Percent
same,Area Percent of HPLC peak,"[1]; 10 mg/mL ELSA RTU Formulation 2, inverted, 40° C., Day 28",97.70 Area Percent
same,Area Percent of HPLC peak,"[1]; 10 mg/mL ELSA RTU Formulation 2, inverted, 40° C., Day 38",98.04 Area Percent
same,Area Percent of HPLC peak,"[1]; 10 mg/mL ELSA RTU Formulation 2, inverted, 40° C., Day 64",97.04 Area Percent
same,Area Percent of HPLC peak,"[1]; 10 mg/mL ELSA RTU Formulation 2, inverted, 40° C., Day 77",96.84 Area Percent
same,Area Percent of HPLC peak,"[1]; 10 mg/mL ELSA RTU Formulation 2, inverted, 40° C., Day 84",96.64 Area Percent
same,Area Percent of HPLC peak,"[1]; 10 mg/mL ELSA RTU Formulation 2, inverted, 40° C., Initial",97.63 Area Percent
same,Area Percent of HPLC peak,"[1]; 10 mg/mL ELSA RTU Formulation 2, inverted, 60° C., Day 2",97.73 Area Percent
same,Area Percent of HPLC peak,"[1]; 10 mg/mL ELSA RTU Formulation 2, inverted, 60° C., Day 7",96.86 Area Percent
same,Area Percent of HPLC peak,"[1]; 10 mg/mL ELSA RTU Formulation 2, inverted, 60° C., Day 10",96.82 Area Percent
same,Area Percent of HPLC peak,"[1]; 10 mg/mL ELSA RTU Formulation 2, inverted, 60° C., Day 14",96.03 Area Percent
same,Area Percent of HPLC peak,"[1]; 10 mg/mL ELSA RTU Formulation 2, inverted, 60° C., Initial",97.63 Area Percent
same,Area Percent of HPLC peak,"[1]; 10 mg/mL ELSA RTU Formulation 2, upright, 5° C., Day 7",97.86 Area Percent
same,Area Percent of HPLC peak,"[1]; 10 mg/mL ELSA RTU Formulation 2, upright, 5° C., Day 14",97.63 Area Percent
same,Area Percent of HPLC peak,"[1]; 10 mg/mL ELSA RTU Formulation 2, upright, 5° C., Day 28",97.63 Area Percent
same,Area Percent of HPLC peak,"[1]; 10 mg/mL ELSA RTU Formulation 2, upright, 5° C., Day 64",97.39 Area Percent
same,Area Percent of HPLC peak,"[1]; 10 mg/mL ELSA RTU Formulation 2, upright, 5° C., Day 84",97.33 Area Percent
same,Area Percent of HPLC peak,"[1]; 10 mg/mL ELSA RTU Formulation 2, upright, 5° C., Initial",97.63 Area Percent
same,Area Percent of HPLC peak,"[1]; 10 mg/mL ELSA RTU Formulation 2, upright, 40° C., Day 7",97.77 Area Percent
same,Area Percent of HPLC peak,"[1]; 10 mg/mL ELSA RTU Formulation 2, upright, 40° C., Day 14",97.71 Area Percent
same,Area Percent of HPLC peak,"[1]; 10 mg/mL ELSA RTU Formulation 2, upright, 40° C., Day 28",97.62 Area Percent
same,Area Percent of HPLC peak,"[1]; 10 mg/mL ELSA RTU Formulation 2, upright, 40° C., Day 38",97.76 Area Percent
same,Area Percent of HPLC peak,"[1]; 10 mg/mL ELSA RTU Formulation 2, upright, 40° C., Day 64",96.86 Area Percent
same,Area Percent of HPLC peak,"[1]; 10 mg/mL ELSA RTU Formulation 2, upright, 40° C., Day 77",96.80 Area Percent
same,Area Percent of HPLC peak,"[1]; 10 mg/mL ELSA RTU Formulation 2, upright, 40° C., Day 84",97.31 Area Percent
same,Area Percent of HPLC peak,"[1]; 10 mg/mL ELSA RTU Formulation 2, upright, 40° C., Initial",97.63 Area Percent
same,Area Percent of HPLC peak,"[1]; 10 mg/mL ELSA RTU Formulation 12, upright, 25° C., Day 7",97.86 Area Percent
same,Area Percent of HPLC peak,"[1]; 10 mg/mL ELSA RTU Formulation 12, upright, 25° C., Day 14",97.67 Area Percent
same,Area Percent of HPLC peak,"[1]; 10 mg/mL ELSA RTU Formulation 12, upright, 25° C., Day 28",98.32 Area Percent
same,Area Percent of HPLC peak,"[1]; 10 mg/mL ELSA RTU Formulation 12, upright, 25° C., Day 64",97.68 Area Percent
same,Area Percent of HPLC peak,"[1]; 10 mg/mL ELSA RTU Formulation 12, upright, 25° C., Day 84",98.08 Area Percent
same,Area Percent of HPLC peak,"[1]; 10 mg/mL ELSA RTU Formulation 12, upright, 25° C., Initial",97.63 Area Percent
same,Area Percent of HPLC peak,"[1]; 10 mg/mL ELSA RTU Formulation 12, upright, 60° C., Day 2",97.83 Area Percent
same,Area Percent of HPLC peak,"[1]; 10 mg/mL ELSA RTU Formulation 12, upright, 60° C., Day 7",96.93 Area Percent
same,Area Percent of HPLC peak,"[1]; 10 mg/mL ELSA RTU Formulation 12, upright, 60° C., Day 10",95.99 Area Percent
same,Area Percent of HPLC peak,"[1]; 10 mg/mL ELSA RTU Formulation 12, upright, 60° C., Day 14",95.79 Area Percent
same,Area Percent of HPLC peak,"[1]; 10 mg/mL ELSA RTU Formulation 12, upright, 60° C., Initial",97.63 Area Percent
same,IC50 antiproliferative effect,MCF7,0.25 micrograms/ml
same,minimal inhibiting concentrations,ER+ tumors,0.1 micrograms/ml
same,cross-resistance to DX,MCF7DX,cross-resistant
same,IC50,[2],0.074 µM
same,minimal inhibiting concentrations,ER− tumors,3.5 micrograms/ml
same,IC50,[3],0.095 µM
same,elsamtrucin-associated toxicity,[4],relatively mild
same,IC50,[5],0.042 µM
same,IC50,[6],0.024 µM
same,IC50 antiproliferative effect,MDA-MB-231,0.21 micrograms/ml
